In patent publication US5591762A, “Benzimidazoles useful as angiotensin-11 antagonists” (Dr. Karl Thomae GmbH, priority 1991, dated 1997):

Columns and labels:
[1] = molecular target: T1, angiotensin II-receptor (Rattus norvegicus, UniProt P25095); test: Angiotensin II-receptor bonding (binding) with [125I]-angiotensin II on rat lung homogenate; settings: 50 pM [125I]-angiotensin II, 60 min at 37° C., pH 7.40
T1 construct: The tissue (rats lung ) is homogenised in Tris-buffer; from tissue; host or cells: rat lung homogenate (washed 20,000×g pellet)
T1 sequence (P25095 1-359): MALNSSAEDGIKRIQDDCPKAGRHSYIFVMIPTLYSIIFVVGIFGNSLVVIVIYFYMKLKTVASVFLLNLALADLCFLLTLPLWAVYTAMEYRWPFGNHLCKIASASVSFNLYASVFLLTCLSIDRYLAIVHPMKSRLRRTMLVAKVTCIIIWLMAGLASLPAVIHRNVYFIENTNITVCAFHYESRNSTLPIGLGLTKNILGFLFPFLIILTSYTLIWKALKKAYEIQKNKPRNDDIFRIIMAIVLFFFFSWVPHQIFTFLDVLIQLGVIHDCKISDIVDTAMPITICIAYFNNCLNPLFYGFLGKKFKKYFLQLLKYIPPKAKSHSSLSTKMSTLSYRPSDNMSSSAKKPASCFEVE
Procedure: DESCRIPTION OF METHOD: ANGIOTENSIN II-RECEPTOR BONDING
The tissue (rats lung ) is homogenised in Tris-buffer (50 mMol Tris, 150 mMol NaCl, 5 mMol EDTA, pH 7.40) and centrifuged twice for 20 minutes at 20,000×g. The finished pellets are resuspended in incubating buffer (50 mMol Tris, 5 mMol MgCl2, 0.2% BSA, pH 7.40) 1:75, based on the moist weight of the tissue. Each 0.1 ml of homogenate is incubated for 60 minutes at 37° C. with 50 pM [^125 I]-antiotensin II (NEN, Dreieich, FRG) with increasing concentrations of the test substance in a total volume of 0.25 ml. Incubation is ended by rapid filtration through glass fibre filter mats. The filters are each washed with 4 ml of ice cold buffer (25 mMol Tris, 2.5 mMol MgCl2, 0.1% BSA, pH 7.40). The bound radioactivity is measured using a gamma-counter. The corresponding IC50 value is obtained from the dose-activity curve.

[2] = test system: conscious renally hypertensive rats; test: Hypotensive effect in conscious renally hypertensive rats after oral administration; format: in vivo, rat; settings: 10 mg/kg
Procedure: In addition, compounds D, E, F, G, H, M and O were tested on conscious renally hypertensive rats for their effect after oral administration using methods known from the literature.

[3] = test system: rat model of renovascular hypertension (2-kidney 1-clip rat); test: Renovascular hypertension: blood pressure lowering in 2-kidney 1-clip rats (telemetry, oral); format: in vivo; settings: two times daily
From the text: DESCRIPTION OF METHOD: RENOVASCULAR HYPERTENSION
Blood pressure lowering effects of angiotensin-II antagonists were investigated in a rat model of renovascular hypertension. This model, the 2-kidney 1-clip rat, is characterized by an elevated renin activity (see J. Exper. Med. 59, 347-378 (1934), J. Applied Physiol. 31(1), 142-144 (1971) and Gross D. R. in "Animal Models in Cardiovascular Research: Animal Models of hypertension" Martinus Nijhoff Publishers (1985)). The compounds are given two times daily by oral administration to conscious freely moving rats which have been implanted with a chronic-use pressure transmitter to monitor blood pressure and heart rate continuously (PhysioTel® telemetry device).
Male rats (140-150 g) are anaesthetized with pentobarbitonesodium (50 mg/kg i.p.). The abdominal cavity is opened by a midline incision. A solid silver clip with an internal diameter of 0.20 mm is applied to the left renal artery as close as possible to the aorta. The contralateral kidney is not disturbed. The catheter of a pressure transmitter (TA11PA-C40) is inserted in the abdominal aorta and the transmitter fixed to abdominal musculature. The abdomen is closed with sutures. The animals are allowed to recover for several weeks and housed individually in cages.
After the implantation of the chronic-use device, blood pressure and heart rate are transmitted by telemetry and the signals are received by a RA 1010 General Purpose Receiver (Data Science Int.). Data are acquired with the Dataquest® IV 1.11 System on a Hewlett Packard Vectra ES/12 386 computer.
Compounds are dissolved in 1M HCl or 1M NaOH. To stabilize the solution β-cyclodextrin (1.8 g/v%) is added. The solutions (0.3 and 1 mg/kg/2 ml) are orally given by gavage at 10.00 a.m. and 4.00 p.m..

Compound	IC50 [1]	hypotensive effect [2]	also measured
CCCc1nc2c(C)cc(-c3cn(C4CCCCCC4)cn3)cc2n1Cc1ccc(-c2ccccc2C(=O)O)cc1 [Z]	15 nM		
CCCCc1nc2c(C)cc(N3C(=O)C(C)=C(C)C3=O)cc2n1Cc1ccc(-c2ccccc2C(=O)O)cc1 [H]		exhibited a hypotensive effect	
CCCc1nc2c(C)cc(-c3cn4ccccc4n3)cc2n1Cc1ccc(-c2ccccc2-c2nnn[nH]2)cc1 [U]			Blood pressure lowering activity ([3]; 1.0 mg/kg): -43 mmHg
CCCc1nc2c(C)cc(-c3cn(C)cn3)cc2n1Cc1ccc(-c2ccccc2C(=O)O)cc1 [V]	1.2 nM		
CCCc1nc2c(C)cc(-c3cn(CC(N)=O)cn3)cc2n1Cc1ccc(-c2ccccc2C(=O)O)cc1 [AA]	3.4 nM		
CCCCc1nc2c(C)cc(-c3nc4ccccc4n3C)cc2n1Cc1ccc(-c2ccccc2-c2nnn[nH]2)cc1 [T]			Blood pressure lowering activity ([3]; 0.3 mg/kg): -24 mmHg
CCOc1nc2ccc(-c3cn(C(C)C)cn3)cc2n1Cc1ccc(-c2ccccc2C(=O)O)cc1 [Y]	10 nM		
CCCc1nc2c(C)cc(-c3cn(C(C)C)cn3)cc2n1Cc1ccc(-c2ccccc2-c2nn[nH]n2)cc1 [W]	1.5 nM		
Cc1cc(-c2nc3ccccc3n2C)cc2c1nc(C1CC1)n2Cc1ccc(-c2ccccc2C(=O)O)cc1 [M]		exhibited a hypotensive effect	
CCCc1nc2c(C)cc(-c3coc(C)n3)cc2n1Cc1ccc(-c2ccccc2C(=O)O)cc1 [X]	40 nM		
CCCc1nc2c(C)cc(N3CCCCS3(=O)=O)cc2n1Cc1ccc(-c2ccccc2-c2nn[nH]n2)cc1 [G]		exhibited a hypotensive effect	
CCCc1nc2c(C)cc(N3Cc4ccccc4C3=O)cc2n1Cc1ccc(-c2ccccc2-c2nn[nH]n2)cc1 [F]		exhibited a hypotensive effect	
CCCc1nc2c(C)cc(-c3cn4cccnc4n3)cc2n1Cc1ccc(-c2ccccc2-c2nn[nH]n2)cc1 [O]		exhibited a hypotensive effect	
CCCc1nc2c(C)cc(-c3nc4ccccc4n3C)cc2n1Cc1ccc(-c2ccccc2-c2nn[nH]n2)cc1 [E]		exhibited a hypotensive effect	Blood pressure lowering activity ([3]; 0.3 mg/kg): -55 mmHg; Blood pressure lowering activity ([3]; 1.0 mg/kg): -78 mmHg
CCCc1nc2c(C)cc(-c3nc4ccccc4n3C)cc2n1Cc1ccc(-c2ccccc2C(=O)O)cc1 [D]		exhibited a hypotensive effect	Blood pressure lowering activity ([3]; 0.3 mg/kg): -37 mmHg; Blood pressure lowering activity ([3]; 1.0 mg/kg): -68 mmHg
CCCc1nc2c(C)cc(-c3cn(CCCN(C)C)cn3)cc2n1Cc1ccc(-c2ccccc2C(=O)O)cc1 [BB]	1.3 nM		
